# Patent EP4635958A1, “PYRIMIDINE-CONTAINING POLYCYCLIC DERIVATIVE INHIBITOR, AND PREPARATION METHOD THEREFOR AND USE THEREOF” (Shanghai Hansoh Biomedical Co., Ltd., priority 2022, dated 2024)
# Like-named read-outs stand apart in the source and are kept apart here.
# Tests used:
# [1] = Pharmacokinetic determination in mice (IV and PO, plasma, LCMS/MS); type: in vivo, Balb/c mice
# Description: • 1. Study objective: Balb/c mice were used as test animals to study the pharmacokinetic behavior of the compounds in mice (plasma) after oral administration. • 2. Test scheme • 2.1 Test drugs: The example compounds of the present invention, made in house; • 2.2 Test animals: Balb/c mice, male, purchased from Shanghai Jiesijie Experimental Animal Co., Ltd., animal production license number (SCXK (Shanghai) 2013-0006 N0.311620400001794). • 2.3 Drug formulation: Formulation of a drug for oral administration: 10% Captisol in 50 mM citrate buffer pH 5.0.
# (§1) Formulation of 50 mM citric acid: 4.8 g of citric acid was weighed into a 1000 ml glass bottle, ultrapure water was added to 300 ml, and the mixture was magnetically stirred until completely dissolved, additional ultrapure water was then added to 500 ml to formulate 50 mM citric acid.
# (§2) Formulation of a solution containing 50 mM citric acid (10% Captisol, PH = 5): 50 g of Captisol powder was weighed and added to a 1000 ml glass bottle, 300 ml of 50 mM citric acid was added, and the mixture was magnetically stirred until completely dissolved, then additional citric acid was added to 500 ml, and the PH was adjusted to 5 using 10 M NaOH.
# The example compounds were weighed and added to a 4 mL glass bottle separately, 2.4 mL of the solution was added and the mixture was subjected to ultrasound treatment for 10 min to obtain a colorless clear solution with a concentration of 3 mg/mL.
# (§3) Formulation of a drug for intravenous administration: 5%DMSO+10%Solutol HS15+85%PBS.
# (§4) The example compounds were weighed, and 5% DMSO was added according to the total administration volume; the mixture was vortexed and sonicated for 2 min to ensure complete dissolution; then, 10% Solutol HS15 was added, and the mixture was vortexed and sonicated for 2 min to achieve complete dissolution; finally, 85% PBS was added, and the mixture was vortexed and sonicated for 5 min; the obtained mixture was filtered through a 0.22 um membrane to obtain a colorless, transparent, and clear solution with a concentration of 0.2 mg/mL.
# 3 Balb/c mice, male; After overnight fasting, the animals were administered orally (PO) at a dose of 30 mg/kg with an administration volume of 10 mL/kg.
# 3 Balb/C mice, male; After overnight fasting, the animals were administered intravenously (IV) at a dose of 1 mg/kg with an administration volume of 5 mL/kg.
# 0.04 mL of blood was collected from the orbit before administration and at 0.25 h, 0.5 h, 1 h, 2 h, 4 h, 6 h, 8 h, and 24 h after administration and placed in an EDTA-2K test tube, and the test tube was centrifuged at 6000 rpm for 6 min at 4°C to separate the plasma, which was stored at -20°C; the animals were fed 4 h after administration.
# The final determination results obtained by applying the LCMS/MS method are shown in the table below: Table 6: Pharmacokinetic parameters of the compounds administered intravenously in mice
# [2] = system: GP2D; assay: Inhibition of proliferation of KRAS G12D mutant tumor cell line GP2D (CellTiter-Glo); settings: read-out: GP2D IC50
# [3] = system: AsPC-1; assay: Inhibition of proliferation of KRAS G12D mutant tumor cell line AsPC-1 (CellTiter-Glo); type: cell-based
# Description: 1. Experimental objective: The inhibition activity of the example compounds on the proliferation of 5 KRAS G12D mutant cell lines SNU-1, HPAF-II, Panc0403, AsPC-1 and GP2D was determined. 2. Experimental instruments: • 2.1 Instruments: Microplate reader (BioTek Synergy H1); Pipette (Eppendorf & Rainin). • 2.2 Reagents: HPAF-II, PANC0403, AsPC-1 and GP2D were purchased from COBIOER BIOSCIENCES CO., LTD; SNU-1 was purchased from the cell bank of Chinese Academy of Sciences, Cell Titer-Glo was purchased from Promega, with a catalog number of G7573; RPMI 1640 was purchased from Gibco, with a catalog number of 22400089; DMEM was purchased from Gibco, with a catalog number of 11995065; FBS was purchased from Gibco, with a catalog number of 10091148; PBS was purchased from Gibco, with a catalog number of 10010023; trypsin was purchased from Gibco, with a catalog number of 25200056; cell culture plates were purchased from Corning Company, with a catalog number of 3610. 3. Experimental method: When SNU-1, HPAF-II, Panc0403, AsPC-1 or GP2D cells were cultured to the appropriate confluence, and the SNU-1, HPAF-II, Panc0403, AsPC-1 or GP2D cells were collected. The cells were adjusted to the appropriate cell density using complete culture medium, the cell suspension was plated onto a 96-well plate at 90 µL per well, and the plate was placed in the incubator at 37°C and 5% CO2 for adherent culture overnight. Solutions of the compound with different concentrations were formulated using DMSO and culture medium. A vehicle control was set up. The solutions of the compound were added to the 96-well plate at 10 µL per well, and the plate was placed in the incubator at 37°C and 5% CO2 for further culture for about 72 h. Then, CellTiter-Glo solution was added, and the obtained mixture was shaken and mixed evenly, incubated in the dark for 10 min, and read with a BioTek Synergy H1 microplate reader. 4. Experimental data processing method: The luminescence signal value was used to calculate the inhibition rate. Graphpad Prism software was used to fit the concentration and inhibition rate to a nonlinear regression curve, so as to obtain the IC50 value. 5. Experimental results: Table 2: Determination of the inhibition activity of the compounds on the proliferation of KRAS G12D mutant tumor cell line GP2D
# [4] = Pharmacokinetic determination in rats (IV and PO, plasma, LCMS/MS); type: in vivo, SD rats; settings: male SD rats; for AUC(0-inf): read-out: AUCo-∞; for half-life: read-out: T1/2 (converted)
# Description: SD rats were used as test animals to study the pharmacokinetic behavior of the example compounds in rats (plasma) after oral administration.
# The example compounds of the present invention, made in house.
# 3 SD rats per group, male. Shanghai Jiesijie Experimental Animal Co., Ltd., animal production license number (SCXK (Shanghai) 2013-0006 N0.311620400001794).
# Formulation of a drug for oral administration: 10% Captisol in 50 mM citrate buffer pH 5.0.
# as §1, §2
# The example compounds were weighed and dissolved in the solution and the mixture was shaken well and subjected to ultrasound treatment for 15 min to obtain a colorless clear solution with a concentration of 3 mg/mL.
# as §3, §4
# 3 SD rats per group, male; After overnight fasting, the animals were administered orally (PO) at a dose of 30 mg/kg with an administration volume of 10 mL/kg.
# 3 SD rats per group, male; After overnight fasting, the animals were administered intravenously (IV) at a dose of 1 mg/kg with an administration volume of 5 mL/kg.
# 0.2 mL of blood was collected from the jugular vein before administration and at 0.25 h, 0.5 h, 1.0 h, 2.0 h, 4.0 h, 6.0 h, 8.0 h, and 24.0 h after administration and placed in an EDTA-2K test tube, and the test tube was centrifuged at 6000 rpm for 6 min at 4°C to separate the plasma, which was stored at -20°C. the animals were fed 4 h after administration.
# The final determination results obtained by applying the LCMS/MS method are shown in the table below: Table 8: Pharmacokinetic parameters of the compounds administered intravenously in rats
# [5] = Plasma stability test, rat plasma; settings: Rat plasma, 37°C
# Description: The purpose of this experiment was to detect the stability of the example compounds in plasma of mouse, rat, dog and human.
# Liquid chromatography-mass spectrometer, centrifuge, vortexer, pipette, continuous dispenser, 96-well plate, 50% methanol aqueous solution, acetonitrile solution containing internal standard, blank matrix (plasma of rat, dog, or human), Propantheline (propantheline bromide), Mevinolin (lovastatin), and test compound.
# After whole blood was collected from animals or humans, it was placed in a test tube containing an anticoagulant and centrifuged at 3500 rpm for 10 min to collect the upper pale yellow plasma.
# The compound was weighed and the stock solution was formulated with DMSO and the working solution was formulated with 100 mM phosphate buffer.
# 2.36 mg of propantheline bromide was weighed and diluted with 1 mL of DMSO into a 10 mM stock solution; 10 µL of 10 mM stock solution was pipetted into 1 mL of 100 mM phosphate buffer to achieve a final concentration of 100 µM.
# 4.05 mg of lovastatin was weighed and diluted with 1 mL of DMSO into a 10 mM stock solution; 10 µL of 10 mM stock solution was pipetted into 1 mL of 100 mM phosphate buffer to achieve a final concentration of 100 µM.
# • 1) In a 96-well plate, 285 µL of plasma and 15 µL of 10 µM compound (test compound) were added in sequence and incubated at 37°C. • 2) 40 µL was taken at 0, 15, 30, 60, 90, and 120 min (the sampling point can be fine-tuned) and 160 µL of acetonitrile stop solution containing internal standard was add. • 3) After centrifugation (3500 rpm, 10 min), 50 µL of supernatant was taken, and 50 µL of DDH2O added for dilution and then the obtained mixture was injected into LC-MS/MS.
# • Instruments: Shimadzu LC-20 AD • Chromatographic column: Phenomenex Gemiu ® C18 (50*4.6 mm, 5 µm particle size); • mobile phase: A: Acetonitrile, B: 0.1% formic acid solution 0-8 min: 5% A→95% A, 2.0-2.1 min: 90%A→5% A; Flow rate: 0.8 mL/min; Run time: 5.0 min; Injection volume: 5 µL.
# • Instrument: API4000 liquid chromatography-mass spectrometer, AB Company, USA; • the ion source was electrospray ionization source (ESI); • drying gas (N2) temperature was 500°C; • electrospray voltage was 5500V; • the detection method was positive ion detection; • the scanning method was selected reaction monitoring (MRM); • the scanning time was 0.1s.
# [6] = PO, 30 mg/kg, male Balb/c mice, overnight fasting, plasma
# [7] = proliferation, about 72 h, CellTiter-Glo
# [8] = Balb/c mice, intravenously (IV), 1 mg/kg, plasma
# [9] = IV, 1 mg/kg, overnight fasting, plasma
# [10] = PO, 30 mg/kg, overnight fasting, plasma
# [11] = Homo sapiens, ASPC1, about 72 h
# [12] = rat, in vivo, PO, 30 mg/kg, overnight fasting, plasma
# [13] = rat, in vivo, PO, 30 mg/kg, overnight fasting, plasma, read-out: Cmax
# [14] = rat, in vivo, PO, 30 mg/kg, overnight fasting, plasma, read-out: Tmax
compound,measurement,setting,value
"4-((5S,5aS,6R,9S)-12-((1-((((R)-4-(difluoromethylene)-2-methylpiperidin-1-yl)methyl)cyclopropyl)methoxy)-1-fluoro-5-methyl-5a,6,7,8,9,10-hexahydro-5H-4-oxa-3,10a,11,13,14-pentaaza-6,9-methylnaphtho[1,8-ab]hept-2-yl)-5-ethynyl-6-fluoronaphthalen-2-ol [Example 89]",AUC0-∞,[1]; [6],1513 ng·h/mL
same,Cmax,[1]; [6],259 ng/mL
same,T1/2,[1]; [6],7.7 h
same,Tmax,[1]; [6],1.0 h
same,IC50,[2]; [7],0.9 nM
same,IC50,[3]; about 72 h,8.9 nM
"4-((5S,5aS,6R,9S)-12-((1-((((R)-4-(difluoromethylene)-2-methylpiperidin-1-yl)methyl)cyclopropyl)methoxy)-1-fluoro-5-methyl-5a,6,7,8,9,10-hexahydro-5H-4-oxa-3,10a,11,13,14-pentaaza-6,9-methylnaphtho[1,8-ab]hept-2-yl)-5-ethynyl-6-fluoronaphthalen-2-ol [Example 91]",AUCo-∞,[1]; [8],366 ng·h/mL
same,C0,[1]; [8],662 ng/mL
same,CL,[1]; [8],45.6 mL/min/kg
same,T1/2,[1]; [8],9.3 h
same,F,"[1]; PO 30 mg/kg vs IV 1 mg/kg, male Balb/c mice",16.6%
same,AUC0-∞,[1]; [6],1818 ng·h/mL
same,Cmax,[1]; [6],295 ng/mL
same,T1/2,[1]; [6],5.7 h
same,Tmax,[1]; [6],2.0 h
same,AUCo-∞,[4]; [9],660 ng·h/mL
same,C0,[4]; [9],995 ng/mL
same,CL,[4]; [9],25.3 mL/min/kg
same,T1/2,[4]; [9],11.9 h
same,F,[4]; PO 30 mg/kg vs IV 1 mg/kg,9.7%
same,AUCo-∞,[4]; [10],1925 ng·h/mL
same,Cmax,[4]; [10],251 ng/mL
same,T1/2,[4]; [10],4.8 h
same,Tmax,[4]; [10],6.0 h
same,IC50,[2]; [7],0.28 nM
same,IC50,[3]; about 72 h,5.8 nM
C#Cc1c(F)ccc2cc(O)cc(-c3nc4c5c(nc(OCC6(CN7CCC(=C(F)F)C[C@@H]7C)CC6)nc5c3F)N3C[C@H]5CC[C@H](N5)[C@H]3[C@H](C)O4)c12 [Example 90],IC50,"[2]; Homo sapiens, GP2d, 72 h",0.51 nM
same,IC50,[3]; [11],8.8 nM
C#Cc1c(F)ccc2cc(O)cc(-c3nc4c5c(nc(OCC6(CN7CCC(=C(F)F)C7)CC6)nc5c3F)N3C[C@H]5CC[C@H](N5)[C@H]3[C@H](C)O4)c12 [Example 130],IC50,"[2]; Homo sapiens, GP2d, 72 h",0.33 nM
same,IC50,[3]; [11],4.2 nM
C#Cc1c(F)ccc2cc(O)cc(-c3nc4c5c(nc(OCC6(CN7CCCC(=C(F)F)CC7)CC6)nc5c3F)N3C[C@H]5CC[C@H](N5)[C@H]3[C@H](C)O4)c12 [Example 132],AUC(0-inf),[4]; [12],2350 ng·h/mL
same,Cmax,[4]; [13],246 ng/mL
same,Tmax,[4]; [14],2 h
same,IC50,"[2]; Homo sapiens, GP2d, 72 h",0.24 nM
same,IC50,[3]; [11],4.9 nM
[2H]C([2H])([2H])C1Oc2nc(-c3cc(O)cc4ccc(F)c(C#C)c34)c(F)c3nc(OCC4(CN5CCC(=CF)CC5C)CC4)nc(c23)N2CC3CCC(N3)C12 (stereo not drawn) [Example 286],AUC(0-inf),[4]; [12],600 ng·h/mL
same,Cmax,[4]; [13],50 ng/mL
same,half-life,[4]; [12],10.8 h
same,Tmax,[4]; [14],2 h
same,IC50,"[2]; Homo sapiens, GP2d, 72 h",0.32 nM
same,IC50,[3]; [11],7.8 nM
[2H]C([2H])(Oc1nc2c3c(nc(-c4cc(O)cc5ccc(F)c(C#C)c45)c(F)c3n1)O[C@@H](C)[C@@H]1[C@@H]3CC[C@H](CN21)N3)C1(C([2H])([2H])N2CCC(=C(F)F)CC2)CC1 [Example 289],AUC(0-inf),[4]; [12],2110 ng·h/mL
same,Cmax,[4]; [13],280 ng/mL
same,half-life,[4]; [12],6.3 h
same,Tmax,[4]; [14],4 h
same,IC50,"[2]; Homo sapiens, GP2d, 72 h",0.28 nM
same,IC50,[3]; [11],5.7 nM
[2H]C([2H])(Oc1nc2c3c(nc(-c4cc(O)cc5ccc(F)c(C#C)c45)c(F)c3n1)O[C@@H](C)[C@@H]1[C@@H]3CC[C@H](CN21)N3)C1(C([2H])([2H])N2CCC(=C(F)F)C[C@H]2C)CC1 [Example 290],IC50,"[2]; Homo sapiens, GP2d, 72 h",0.3 nM
same,IC50,[3]; [11],6.2 nM
"CC[C@H](C)C(=O)O[C@H]1C[C@@H](C)C=C2C=C[C@H](C)[C@H](CC[C@@H]3C[C@@H](O)CC(=O)O3)[C@H]21 [Lovastatin, lovastatin, reference compound]",Remaining rate (%) 0 min,[5]; 0 min,100.00%
same,Remaining rate (%) 15 min,[5]; 15 min,21.15%
same,Remaining rate (%) 30 min,[5]; 30 min,1.77%
same,Remaining rate (%) 60 min,[5]; 60 min,0.36%
same,Remaining rate (%) 120 min,[5]; 120 min,0.30%
